≈ marks a conversion by molar mass, not a printed value. Ends that are not written are not given here. Peptide text beside a SMILES is read from it.
Assays:
Type in all cases: cell-based
[1] = system: Escherichia coli (ATCC 8739); conditions: for MBC Escherichia coli: ATCC 8739, 3 h
Text: (§1) The following pathogenic bacterial strains were used: The Gram-positive Enterococcus faecalis (ATCC 29212), Staphylococcus aureus (HNCMO112011), Listeria monocytogenes (ATCC 19111) and the Gram-negative Pseudomonas aeruginosa (ATCC 27853), Escherichia coli (ATCC 8739), Salmonella enterica (ATCC 13076), Klebsiella pneumoniae (NCTC 13440), Acinetobacter baumannii (ATCC 17978) obtained from the ATCC (United States) and NCTC (National Collection of Type Cultures–England). For the antifungal experiment the Candida albicans W01 strain ([Ördögh et al., 2014]) was used. Antimicrobial activities of peptides against ∼10^7 log phase bacteria were tested in Potassium-Phosphate Buffer (PPB, pH 7.4) as described by [Jenei et al. (2020)] while anti-Candida assays were done according to [Szerencsés et al. (2021)]. The two-fold dilution series of peptides ranged from 25 μM to 0.125 μM, while that of the antibiotics ampicillin (Merck) and miconazole (Duchefa Biochemie) from […] to 0.1 μM. The lowest concentration of the antimicrobial agents, which completely eliminated viable bacteria or C. albicans were considered as the minimal bactericidal concentration (MBC) and minimal fungicidal concentration (MFC).
(§2) The minimal bactericidal concentrations (MBCs) were determined after 3 h of treatment of ∼10^7 log phase bacteria with 2-fold serial dilution of peptides from 25 µM to 0.8 µM. Only 25 of the 50 cationic M. truncatula peptides had activity at ≤25 µM (Supplementary Table S1). […] Three peptides were only active against two bacterial strains; NCR649 against L. monocytogenes and A. baumannii, NCR281 against L. monocytogenes and P. aeruginosa and NCR350 against A. baumannii and P. aeruginosa. […] None of the anionic NCR peptides affected the survival of the tested bacterial strains.

[2] = system: Pseudomonas aeruginosa (ATCC 27853); conditions: for MBC Pseudomonas aeruginosa: ATCC 27853, 3 h; for Activity against P. aeruginosa: 3 h, ~10^7 log phase bacteria, peptides ≤25 µM
Text: as §1, §2

[3] = system: Listeria monocytogenes (ATCC 19111); conditions: for MBC Listeria monocytogenes: ATCC 19111, 3 h; for Activity against L. monocytogenes: 3 h, ~10^7 log phase bacteria, peptides ≤25 µM
Text: as §1, §2

[4] = system: Enterococcus faecalis (ATCC 29212); conditions: 3 h, ~10^7 log phase bacteria, peptides ≤25 µM
Text: as §1, §2

[5] = system: Acinetobacter baumannii (ATCC 17978); experiment: microbe, parasite or virus in culture; conditions: for Activity against A. baumannii: 3 h, ~10^7 log phase bacteria, peptides ≤25 µM
Text: as §1, §2

Compound | MBC Escherichia coli [1] [µM] | MBC Pseudomonas aeruginosa [2] [µM] | MBC Listeria monocytogenes [3] [µM] | Activity against L. monocytogenes [3] | other results
CC(C)C[C@H](NC(=O)[C@H](CCCCN)NC(=O)[C@H](CC(C)C)NC(=O)[C@H](CS)NC(=O)[C@H](CCCCN)NC(=O)CNC(=O)[C@@H](N)Cc1ccccc1)C(=O)N[C@@H](CCCCN)C(N)=O [GoNCR308 (16-23)] (H-FGKCLKLK-NH2) | 25 (≈ 23.4 µg/mL) | 25 (≈ 23.4 µg/mL) |  |  | 
CC(C)C[C@H](NC(=O)[C@H](CS)NC(=O)[C@H](CCCCN)NC(=O)CNC(=O)[C@@H](N)Cc1ccccc1)C(=O)N[C@@H](CCCCN)C(=O)N[C@@H](CC(C)C)C(=O)N[C@@H](CCCCN)C(=O)N[C@@H](CS)C(=O)N[C@H](C(N)=O)C(C)C [GoNCR308 (16-25)] (H-FGKCLKLKCV-NH2; N-terminus assumed) | 25 (≈ 28.4 µg/mL) | 12.5 (≈ 14.2 µg/mL) | 12.5 (≈ 14.2 µg/mL) |  | 
CC[C@H](C)[C@H](N)C(=O)N[C@H](C(=O)N[C@H](C(=O)N[C@@H](CC(N)=O)C(=O)N[C@@H](CCCNC(=N)N)C(=O)N[C@@H](CCCNC(=N)N)C(=O)N[C@@H](CS)C(=O)N[C@@H](CCCCN)C(=O)N[C@@H](CO)C(=O)N[C@@H](Cc1c[nH]cn1)C(=O)N[C@@H](CCCCN)C(=O)N[C@@H](CC(=O)O)C(=O)N[C@@H](CS)C(=O)N1CCC[C@H]1C(=O)NCC(=O)N[C@@H](Cc1ccccc1)C(=O)NCC(=O)N[C@@H](CCCCN)C(=O)N[C@@H](CS)C(=O)N[C@@H](CC(C)C)C(=O)N[C@@H](CCCCN)C(=O)N[C@@H](CC(C)C)C(=O)N[C@@H](CCCCN)C(=O)N[C@@H](CS)C(=O)N[C@H](C(=O)N[C@@H](Cc1ccc(O)cc1)C(=O)N[C@H](C(=O)N1CCC[C@H]1C(=O)N[C@@H](CCCCN)C(=O)N[C@@H](CCCNC(=N)N)C(=O)O)[C@@H](C)O)C(C)C)[C@@H](C)O)[C@@H](C)CC [GoNCR308] (H-IITNRRCKSHKDCPGFGKCLKLKCVYTPKR-OH; N-terminus assumed) |  |  |  |  | Ability to kill E. faecalis [4]: able to kill
CSCC[C@H](NC(=O)[C@H](CCCNC(=N)N)NC(=O)[C@@H](NC(=O)[C@H](Cc1c[nH]c2ccccc12)NC(=O)[C@H](CCCNC(=N)N)NC(=O)[C@H](CS)NC(=O)[C@H](CCC(=O)O)NC(=O)CNC(=O)[C@H](CCCCN)NC(=O)[C@@H](NC(=O)[C@H](CS)NC(=O)[C@H](CCCCN)NC(=O)[C@H](Cc1ccccc1)NC(=O)[C@H](CCCNC(=N)N)NC(=O)[C@H](CCCCN)NC(=O)[C@@H](NC(=O)[C@H](CCCNC(=N)N)NC(=O)[C@@H](NC(=O)[C@H](CO)NC(=O)[C@@H]1CCCN1C(=O)[C@@H]1CCCN1C(=O)[C@H](CS)NC(=O)[C@H](CC(=O)O)NC(=O)[C@H](C)NC(=O)[C@H](CC(=O)O)NC(=O)[C@@H](NC(=O)[C@H](CCC(=O)O)NC(=O)[C@H](CS)NC(=O)[C@H](CC(N)=O)NC(=O)[C@@H](NC(=O)[C@@H](N)Cc1ccc(O)cc1)C(C)C)[C@@H](C)O)[C@@H](C)O)C(C)C)C(C)C)[C@@H](C)O)C(=O)N[C@@H](CO)C(=O)N[C@@H](Cc1ccc(O)cc1)C(=O)N[C@@H](C)C(=O)O [NCR086] (H-YVNCETDADCPPSTRVKRFKCVKGECRWTRMSYA-OH; N-terminus assumed) |  |  | 25 (≈ 100 µg/mL) |  | 
CC[C@H](C)[C@H](NC(=O)[C@H](Cc1ccc(O)cc1)NC(=O)[C@H](C)N)C(=O)N[C@@H](CCC(=O)O)C(=O)N[C@@H](CS)C(=O)N[C@@H](CCC(=O)O)C(=O)N[C@H](C(=O)N[C@@H](CC(=O)O)C(=O)N[C@@H](CC(=O)O)C(=O)N[C@@H](CC(=O)O)C(=O)N[C@@H](CS)C(=O)N1CCC[C@H]1C(=O)N[C@@H](CCCCN)C(=O)N1CCC[C@H]1C(=O)N[C@@H](CCSC)C(=O)N[C@@H](CCCCN)C(=O)N[C@@H](CC(N)=O)C(=O)N[C@@H](CO)C(=O)N[C@@H](Cc1c[nH]cn1)C(=O)N1CCC[C@H]1C(=O)N[C@@H](CC(=O)O)C(=O)N[C@H](C(=O)N[C@@H](Cc1ccc(O)cc1)C(=O)N[C@@H](Cc1ccc(O)cc1)C(=O)N[C@@H](CCCCN)C(=O)N[C@@H](CS)C(=O)N[C@H](C(=O)N[C@@H](CCCCN)C(=O)N[C@@H](Cc1c[nH]cn1)C(=O)N[C@@H](CCCNC(=N)N)C(=O)N[C@@H](CS)C(=O)N[C@@H](CCC(N)=O)C(=O)N[C@@H](Cc1c[nH]c2ccccc12)C(=O)N[C@@H](C)C(=O)N[C@@H](Cc1c[nH]c2ccccc12)C(=O)N[C@@H](CCCCN)C(=O)O)C(C)C)[C@@H](C)O)C(C)C [NCR147] (H-AYIECEVDDDCPKPMKNSHPDTYYKCVKHRCQWAWK-OH; N-terminus assumed) | 25 (≈ 110 µg/mL) | 12.5 (≈ 54.9 µg/mL) | 12.5 (≈ 54.9 µg/mL) | showed activity | Activity against A. baumannii [5]: showed activity; MBC Acinetobacter baumannii ([5]; ATCC 17978, 3 h): 3.125 µM (≈ 13.7 µg/mL); Activity against E. coli ([1]; 3 h, ~10^7 log phase bacteria, peptides ≤25 µM): showed activity; Activity against P. aeruginosa [2]: showed activity
CC[C@H](C)[C@H](NC(=O)[C@@H]1CCCN1C(=O)[C@H](CO)NC(=O)[C@@H](N)CO)C(=O)N[C@@H](CCCNC(=N)N)C(=O)N[C@H](C(=O)N[C@H](C(=O)N[C@@H](CC(=O)O)C(=O)N[C@H](C(=O)N[C@@H](CO)C(=O)N[C@@H](CCCNC(=N)N)C(=O)N1CCC[C@H]1C(=O)N[C@@H](CS)C(=O)N[C@H](C(=O)N[C@H](C(=O)N[C@@H](CC(=O)O)C(=O)N[C@@H](CCCCN)C(=O)N[C@@H](CC(=O)O)C(=O)N[C@@H](CS)C(=O)N[C@@H](CO)C(=O)N[C@@H](CCCCN)C(=O)N[C@H](C(=O)N[C@@H](CCC(=O)O)C(=O)N[C@@H](Cc1ccc(O)cc1)C(=O)NCC(=O)N[C@@H](Cc1ccc(O)cc1)C(=O)N[C@@H](CCCCN)C(=O)N[C@@H](CC(C)C)C(=O)N[C@@H](CCCNC(=N)N)C(=O)N[C@@H](CS)C(=O)N[C@@H](CCCNC(=N)N)C(=O)N[C@@H](CCCCN)C(=O)NCC(=O)N[C@@H](CCCNC(=N)N)C(=O)N[C@@H](CS)C(=O)N[C@H](C(=O)N[C@@H](Cc1c[nH]cn1)C(=O)N[C@H](C(=O)N1CCC[C@H]1C(=O)N[C@@H](CCCNC(=N)N)C(=O)O)[C@@H](C)CC)C(C)C)C(C)C)[C@@H](C)O)[C@@H](C)O)C(C)C)[C@@H](C)O)C(C)C [NCR533] (H-SSPIRVTDVSRPCTTDKDCSKVEYGYKLRCRKGRCVHIPR-OH; N-terminus assumed) | 25 (≈ 115 µg/mL) |  |  |  | 
CC(C)C[C@H](NC(=O)[C@H](CS)NC(=O)[C@@H](NC(=O)[C@H](CS)NC(=O)[C@H](CCCCN)NC(=O)[C@@H](NC(=O)[C@@H](NC(=O)[C@H](CCC(=O)O)NC(=O)[C@@H]1CCCN1C(=O)[C@@H]1CCCN1C(=O)[C@@H](NC(=O)[C@H](CS)NC(=O)[C@H](CCCCN)NC(=O)[C@H](CC(C)C)NC(=O)[C@@H](NC(=O)[C@@H](N)CCCCN)C(C)C)[C@@H](C)O)C(C)C)C(C)C)[C@@H](C)O)C(=O)N[C@@H](CS)C(=O)NCC(=O)N[C@@H](CCCCN)C(=O)N[C@@H](CCCNC(=N)N)C(=O)N[C@H](C(=O)N[C@@H](CC(C)C)C(=O)N[C@@H](Cc1ccc(O)cc1)C(=O)O)[C@@H](C)O [NCR649] (H-KVLKCTPPEVVKCTCLCGKRTLY-OH; N-terminus assumed) |  |  |  | active | Activity against A. baumannii [5]: active
GRYTTPWCVRDIDCPKEKCKHPFKPRCLTHSCVCRLWGSQDVI-OH (cysteines drawn unpaired) [NCR281] |  |  |  | active | Activity against P. aeruginosa [2]: active
